Assay results as given in PMC6218659, “Structures of DPAGT1 Explain Glycosylation Disease Mechanisms and Advance TB Antibiotic Design” (Cell, 2018).
Converted amounts (≈) assume the structure as drawn. Structures can show the parent of a compound that is named as a salt. Where two headings read alike, the source gives them in different places.

How the values were obtained:
B. subtilis EC1524 = experiment: Micro-broth dilution and drop plate antimicrobial susceptibility test; assay type: cell-based, Bacillus subtilis; conditions: for Relative Therapeutic Index (RTI), B. subtilis EC1524: minimal lethal dose / MIC, 800 μg mL-1 used for >400
Experimental: (§1) In a sterile 96-well plate, serial dilutions were made with the test substance to final volume of 50 μl. Inoculum was then prepared in Mueller-Hinton broth to 0.5 McFarland and diluted before adding 50 μl to the well to make ∼1x10^5 CFU/ml. The culture plate was incubated at 35 °C for 20-24 hrs. A positive growth control and sterility wells were also prepared along with the culture wells. Absorbance at OD600 was taken using BMG Labtech SPECTROstar Omega spectrophotometer. MIC is determined by the lowest concentration without growth. IC50 is determined from plotting a dose-response curve, see Data Analysis below. To determine the MBC, using a multi-channel pipette, 1 μl of culture broth was taken from the same 96-well microdilution growth plate and carefully inoculated on surface of MH agar plate. The plate is then incubated for additional 20 hrs. at 35 °C. The MBC value is the lowest concentration without observed growth on the agar.

B. cereus ATCC11778 = experiment: as above; assay type: cell-based, Bacillus cereus; conditions: for Relative Therapeutic Index (RTI), B. cereus NRRL 11778: minimal lethal dose / MIC, 800 μg mL-1 used for >400
Experimental: as §1

Mtb H37Rv ATCC27294 [1] = experiment: Minimum inhibitory concentrations testing against Mtb; assay type: cell-based, Mycobacterium tuberculosis; conditions: for MIC: Mycobacterium tuberculosis, 168 h
HEK293 cells = experiment: Cell proliferation assay (MTS); assay type: cell-based, human; conditions: for LD50 values, HEK293: MTS cell proliferation assay, 24 hrs, highest concentration 400 µg mL-1; for Minimal Lethal Dose, HEK 293: serial 2-fold dilutions (Table S6)
Experimental: (§2) In sterile 96-well plate, each well was seeded with ∼1x10^5 cells. The cells are then grown confluent overnight in 100 μl DMEM with 10% FBS. The medium is replenished with DMEM with 2% FBS and added vehicle control or test substance the next day. For test substance in methanol, stock was added to 25 μl of DMEM with 2% FBS or PBS and placed in the laminar flow hood to let the methanol evaporate (about 1-3 hrs). Once the methanol has evaporated, DMEM with 2% FBS was added to final volume of 100 μl of desired test concentration. […] Cells are grown for additional 24 hrs. The cell viability was determined by using Promega CellTiter 96^© AQueous One Solution Cell Proliferation Assay (3-(4,5-dimethylthiazol-2-yl)-5-(3-carboxymethoxyphenyl)-2-(4-sulfophenyl)-2H-tetrazolium, inner salt; MTS) System following the manufacture protocol.

HepG2 cells = experiment: Cell proliferation assay (MTS); assay type: cell-based, human; conditions: for LD50 values, HepG2: MTS cell proliferation assay, 24 hrs, highest concentration 400 µg mL-1; for Minimal Lethal Dose, HepG2: serial 2-fold dilutions (Table S6)
Experimental: as §2

Raji cells = experiment: Cell proliferation assay (MTS); assay type: cell-based, human; conditions: 24 hrs
Experimental: as §2

E. coli ATCC25922 = experiment: Micro-broth dilution and drop plate antimicrobial susceptibility test; assay type: cell-based; conditions: Escherichia coli
Experimental: as §1

P. aeruginosa ATCC27853 = experiment: as above; assay type: cell-based; conditions: Pseudomonas aeruginosa
Experimental: as §1

S. aureus ATCC29219 = experiment: as above; assay type: cell-based; conditions: Staphylococcus aureus
Experimental: as §1

in vivo = experiment: in vivo; parameters: species or system C57BL/6 mice; conditions: ip; for concentration at 0.5 h / concentration at 1 h / concentration at 2 h / concentration at 4 h / concentration at 6 h / concentration at 24 h: female, C57BL/6, mouse, 30 mg/kg
Experimental: Test compound was dosed to sixteen female C57BL/6 mice by intraperitoneal injection in a volume of 0.6 ml. To reconstitute TUN-8,8 for intraperitoneal injections, compound (1 mg) was dissolved in 0.1 ml ethanol and subsequently diluted with 0.9 ml 1% Tween 80 in Dulbecco’s PBS. The mixture was warmed to 37 °C, vortexed and sonicated followed by sterile filtration through a 0.2 μm filter. Blood samples were taken from the tail vein of the mice at pre-determined time intervals post-dose, and serum collected after 4 h on ice. 30 μl serum samples were prepared with 30 μl internal standard and 20 μl of water or spiked standard along with 240 μl of ACN/MeOH mix (3:1) to precipitate proteins. Samples were centrifuged 13 krpm for 5 minutes and 2 μl injected into LC-MS/MS system. Calibration standard was prepared 1 mg of TUN-8,8 to 1 ml DMSO and successively diluted by a factor of 3. TUN-9,9 IS solution was prepared to 200 μg/ml in DMSO.
LC-MS/MS was performed on an Agilent 1290 Infinity HPLC coupled to an Agilent 6460C triple quadrupole mass selective detector with electrospray ionization in positive mode. TUN-8,8 and TUN-9,9 (as an internal standard) were detected using their M+H precursors ions with 514.1 and 528.2 Da/z product ions produced in a collision cell using collision energy 12 V. Capillary voltage was 3000 V and ESI used jet stream technology with sheath voltage 2000 V. The column was an Agilent C18 Poroshell 120 2.7 μm with dimensions 2.1 x 50 mm at 40 °C. Mobile phase was water (A) and acetonitrile (B) each with 0.1% (v/v) formic acid. […] Water for LC-MS/MS was purified by a Barnstead Diamond system to 18.2 MΩ-cm resistivity. Acetonitrile (ACN) and Methanol were HPLC grade from Fisher (Fairlawn NJ, USA) and formic acid was supplied from EMD Millipore Corp (Darmstadt, Germany). DMSO was ACS grade manufactured by Amresco LLC in Solon Ohio USA.

Mtb-GFP = assay type: cell-based, Mycobacterium tuberculosis
Mtb-infected mice = experiment: Mouse infection, antitubercular activity
[2] = system: Mtb-infected J774A.1 macrophages; experiment: Efficacy against Mtb growing in infected macrophages; conditions: J774A.1 macrophages treated 3 or 7 days
Mtb H37Rv ATCC27294 [3] = experiment: Macromolecular incorporation assay (radiolabeled glucosamine); conditions: within 48 h, 10x MIC
[4] = Bacillus subtilis, EC1524, read-out: Minimal Inhibitory Concentration, B. subtilis EC1524
[5] = Bacillus cereus, ATCC 11778 / NRRL11778, read-out: Minimal Inhibitory Concentration, B. cereus NRRL 11778
[6] = two weeks, 10 mg.kg^-1 ip, vs vehicle control

SMILES: N[C@H]1[C@H](O[C@H]2O[C@H](CO)[C@@H](O)[C@H](O)[C@H]2N)O[C@H](C[C@@H](O)[C@H]2O[C@@H](n3ccc(=O)[nH]c3=O)[C@H](O)[C@@H]2O)[C@H](O)[C@@H]1O [TUN, α-D-glucosamine-(1”-11')-tunicamyl uracil dihydrochloride]
- MIC (B. subtilis EC1524; [4]): 100 µg/mL
- Relative Therapeutic Index (RTI), B. subtilis EC1524 (B. subtilis EC1524): 8
- MIC (B. cereus ATCC11778; [5]): 100 µg/mL
- Relative Therapeutic Index (RTI), B. cereus NRRL 11778 (B. cereus ATCC11778): 8
- MIC (Mtb H37Rv ATCC27294 [1]; 1-week in 7H9/ADC/Tw (Table S6), read-out: Minimal Inhibitory Concentration, Mtb H37RV a): > 60 µg/mL
- MIC (Mtb H37Rv ATCC27294 [1]; 1-week in GAST/Fe (Table S6), read-out: Minimal Inhibitory Concentration, Mtb H37RV b): > 60 µg/mL
- MIC (Mtb H37Rv ATCC27294 [1]; Mtb H37Rv, minimal growth medium, read-out: 1-week MIC in GAST/Fe): > 60 µg/mL
- MIC (Mtb H37Rv ATCC27294 [1]; Mtb H37Rv, rich 7H9-based growth medium, read-out: 1-week MIC in 7H9/ADC/Tw): > 60 µg/mL
- LD50 values, HEK293 (HEK293 cells): N/A (N/A = not available. No or low cytotoxicity observed at highest, saturating concentration tested (400 µg mL-1))
- Minimal Lethal Dose, HEK 293 (HEK293 cells): > 400 µg/mL
- LD50 values, HepG2 (HepG2 cells): N/A (N/A = not available. No or low cytotoxicity observed at highest, saturating concentration tested (400 µg mL-1))
- Minimal Lethal Dose, HepG2 (HepG2 cells): > 400 µg/mL
- LD50 values, Raji (Raji cells): 698.3 µg/mL

SMILES: CCCCCCCC(=O)N[C@H]1[C@H](O[C@H]2O[C@H](CO)[C@@H](O)[C@H](O)[C@H]2NC(=O)CCCCCCC)O[C@H](C[C@@H](O)[C@H]2O[C@@H](n3ccc(=O)[nH]c3=O)[C@H](O)[C@@H]2O)[C@H](O)[C@@H]1O [TUN-8,8, Di-N-octanoyl-tunicamycin]
- IC50 (B. subtilis EC1524; Bacillus subtilis, EC1524): 0.2 µg/mL (≈ 0.244 µM)
- MBC (B. subtilis EC1524; Bacillus subtilis, EC1524): > 0.78 µg/mL
- MIC (B. subtilis EC1524; Bacillus subtilis, EC1524): 0.65 ± 0.22 µg/mL (≈ 0.794 µM)
- MIC (B. subtilis EC1524; [4]): 0.78 µg/mL (≈ 0.952 µM)
- Relative Therapeutic Index (RTI), B. subtilis EC1524 (B. subtilis EC1524): 1026
- IC50 (B. cereus ATCC11778; Bacillus cereus, ATCC11778): 0.78 µg/mL (≈ 0.952 µM)
- MBC (B. cereus ATCC11778; Bacillus cereus, ATCC11778): > 50 µg/mL
- MIC (B. cereus ATCC11778; Bacillus cereus, ATCC11778): 5.2 ± 1.8 µg/mL (≈ 6.35 µM)
- MIC (B. cereus ATCC11778; [5]): 6.25 µg/mL (≈ 7.63 µM)
- Relative Therapeutic Index (RTI), B. cereus NRRL 11778 (B. cereus ATCC11778): 128
- IC50 (E. coli ATCC25922): 123 µg/mL (≈ 150 µM)
- MBC (E. coli ATCC25922): 400 µg/mL (≈ 488 µM)
- MIC (E. coli ATCC25922): 330 ± 120 µg/mL (≈ 403 µM)
- IC50 (P. aeruginosa ATCC27853): 46.6 µg/mL (≈ 56.9 µM)
- MBC (P. aeruginosa ATCC27853): > 400 µg/mL
- MIC (P. aeruginosa ATCC27853): 83 ± 29 µg/mL (≈ 101 µM)
- IC50 (S. aureus ATCC29219): 58.4 µg/mL (≈ 71.3 µM)
- MBC (S. aureus ATCC29219): 400 µg/mL (≈ 488 µM)
- MIC (S. aureus ATCC29219): 170 ± 60 µg/mL (≈ 208 µM)
- Relative Therapeutic Index (RTI), Mtb H37RV a (Mtb H37Rv ATCC27294 [1]): 1140
- MIC (Mtb H37Rv ATCC27294 [1]; read-out: 1-week MIC in 7H9/ADC/Tw): 0.7 ± 3.3 µg/mL (≈ 0.855 µM)
- MIC (Mtb H37Rv ATCC27294 [1]; read-out: 1-week MIC in GAST/Fe): 0.14 ± 0.1 µg/mL (≈ 0.171 µM)
- MIC (Mtb H37Rv ATCC27294 [1]; read-out: Minimal Inhibitory Concentration, Mtb H37RV a): 0.7 µg/mL (≈ 0.855 µM)
- MIC (Mtb H37Rv ATCC27294 [1]; read-out: Minimal Inhibitory Concentration, Mtb H37RV b): 0.14 µg/mL (≈ 0.171 µM)
- LD50 values, HEK293 (HEK293 cells): N/A (N/A = not available. No or low cytotoxicity observed at highest, saturating concentration tested (400 µg mL-1))
- Minimal Lethal Dose, HEK 293 (HEK293 cells): > 400 µg/mL
- LD50 values, HepG2 (HepG2 cells): N/A (N/A = not available. No or low cytotoxicity observed at highest, saturating concentration tested (400 µg mL-1))
- Minimal Lethal Dose, HepG2 (HepG2 cells): > 400 µg/mL
- LD50 values, Raji (Raji cells): 211.05 ± 125.94 µg/mL
- concentration at 0.5 h (in vivo; first series): 42.7 ± 28.3 µM
- concentration at 1 h (in vivo; first series): 34.6 ± 7.4 µM
- concentration at 2 h (in vivo; first series): 23.7 ± 9.25 µM
- concentration at 4 h (in vivo; first series): 1.32 ± 1.09 µM
- concentration at 6 h (in vivo; first series): 0.21 ± 0.12 µM
- concentration at 24 h (in vivo; first series): 0.06 ± 0.08 µM
- concentration at 0.5 h (in vivo; second series): 52.1 ± 34.5 µM
- concentration at 1 h (in vivo; second series): 42.3 ± 9.04 µM
- concentration at 2 h (in vivo; second series): 28.9 ± 11.3 µM
- concentration at 4 h (in vivo; second series): 1.61 ± 1.33 µM
- concentration at 6 h (in vivo; second series): 0.26 ± 0.15 µM
- concentration at 24 h (in vivo; second series): 0.07 ± 0.1 µM
- bioavailability (in vivo; mouse): good bioavailability
- extracellular release of GFP (lysis) (Mtb-GFP): lytic effects
- toxicity in infected mice (Mtb-infected mice; precluded testing beyond 2 weeks): clinical signs of toxicity
- reduction in bacterial burdens in lungs (Mtb-infected mice; [6]): ~10 fold
- reduction in bacterial burdens in spleens (Mtb-infected mice; [6]): ~5 fold
- reduction of intracellular bacterial burdens ([2]; 1 × MIC): 1 logs
- reduction of intracellular bacterial burdens ([2]; 10 × MIC): 2 logs
- glucosamine incorporation (Mtb H37Rv ATCC27294 [3]): reduced
